The source made the active and inactive calls. Rule as the data show it, for most assays here: actives have a measured Kd and inactives only a lower limit.
Experiments:
[1] = molecular target: Casein kinase I isoform delta (Homo sapiens, UniProt P48730)
Ephrin type-B receptor 2 = molecular target: T1, Ephrin type-B receptor 2 (Homo sapiens, UniProt P29323)
T1 sequence (P29323 whole entry): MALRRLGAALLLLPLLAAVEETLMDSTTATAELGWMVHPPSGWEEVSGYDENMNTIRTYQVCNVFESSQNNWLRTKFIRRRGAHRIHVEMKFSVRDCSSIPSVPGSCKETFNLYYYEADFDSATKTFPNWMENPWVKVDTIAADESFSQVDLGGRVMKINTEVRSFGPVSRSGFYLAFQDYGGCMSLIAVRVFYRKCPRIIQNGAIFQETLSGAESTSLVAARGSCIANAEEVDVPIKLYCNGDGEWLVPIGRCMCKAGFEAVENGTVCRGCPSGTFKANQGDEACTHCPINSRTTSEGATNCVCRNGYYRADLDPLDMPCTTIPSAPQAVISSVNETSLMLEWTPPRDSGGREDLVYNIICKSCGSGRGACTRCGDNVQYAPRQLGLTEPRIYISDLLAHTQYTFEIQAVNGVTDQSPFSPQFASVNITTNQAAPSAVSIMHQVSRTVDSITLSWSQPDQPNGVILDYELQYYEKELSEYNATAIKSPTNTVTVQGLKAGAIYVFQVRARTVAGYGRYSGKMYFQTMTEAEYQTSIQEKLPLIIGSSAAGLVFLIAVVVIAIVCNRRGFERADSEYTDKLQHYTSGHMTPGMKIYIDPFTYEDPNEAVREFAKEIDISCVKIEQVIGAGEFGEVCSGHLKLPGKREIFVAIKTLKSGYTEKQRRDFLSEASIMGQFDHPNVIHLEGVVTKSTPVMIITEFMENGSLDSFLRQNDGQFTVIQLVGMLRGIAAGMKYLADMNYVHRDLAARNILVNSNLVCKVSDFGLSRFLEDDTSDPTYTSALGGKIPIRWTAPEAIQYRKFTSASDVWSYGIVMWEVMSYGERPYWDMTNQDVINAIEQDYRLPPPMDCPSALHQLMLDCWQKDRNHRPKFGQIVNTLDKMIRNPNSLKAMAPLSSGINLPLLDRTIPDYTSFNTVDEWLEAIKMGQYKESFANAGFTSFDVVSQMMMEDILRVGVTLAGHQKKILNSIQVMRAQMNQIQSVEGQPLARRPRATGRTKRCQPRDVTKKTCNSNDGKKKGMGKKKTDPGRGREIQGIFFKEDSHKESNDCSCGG

[2] = molecular target: Glycogen synthase kinase-3 beta (Homo sapiens, UniProt P49841)
Insulin receptor = Insulin receptor (Homo sapiens, UniProt P06213)
[3] = molecular target: Dual specificity mitogen-activated protein kinase kinase 1 (Homo sapiens, UniProt Q02750)
[4] = molecular target: T2, Serine/threonine-protein kinase PLK4 (Homo sapiens, UniProt O00444)
T2 sequence (O00444 whole entry): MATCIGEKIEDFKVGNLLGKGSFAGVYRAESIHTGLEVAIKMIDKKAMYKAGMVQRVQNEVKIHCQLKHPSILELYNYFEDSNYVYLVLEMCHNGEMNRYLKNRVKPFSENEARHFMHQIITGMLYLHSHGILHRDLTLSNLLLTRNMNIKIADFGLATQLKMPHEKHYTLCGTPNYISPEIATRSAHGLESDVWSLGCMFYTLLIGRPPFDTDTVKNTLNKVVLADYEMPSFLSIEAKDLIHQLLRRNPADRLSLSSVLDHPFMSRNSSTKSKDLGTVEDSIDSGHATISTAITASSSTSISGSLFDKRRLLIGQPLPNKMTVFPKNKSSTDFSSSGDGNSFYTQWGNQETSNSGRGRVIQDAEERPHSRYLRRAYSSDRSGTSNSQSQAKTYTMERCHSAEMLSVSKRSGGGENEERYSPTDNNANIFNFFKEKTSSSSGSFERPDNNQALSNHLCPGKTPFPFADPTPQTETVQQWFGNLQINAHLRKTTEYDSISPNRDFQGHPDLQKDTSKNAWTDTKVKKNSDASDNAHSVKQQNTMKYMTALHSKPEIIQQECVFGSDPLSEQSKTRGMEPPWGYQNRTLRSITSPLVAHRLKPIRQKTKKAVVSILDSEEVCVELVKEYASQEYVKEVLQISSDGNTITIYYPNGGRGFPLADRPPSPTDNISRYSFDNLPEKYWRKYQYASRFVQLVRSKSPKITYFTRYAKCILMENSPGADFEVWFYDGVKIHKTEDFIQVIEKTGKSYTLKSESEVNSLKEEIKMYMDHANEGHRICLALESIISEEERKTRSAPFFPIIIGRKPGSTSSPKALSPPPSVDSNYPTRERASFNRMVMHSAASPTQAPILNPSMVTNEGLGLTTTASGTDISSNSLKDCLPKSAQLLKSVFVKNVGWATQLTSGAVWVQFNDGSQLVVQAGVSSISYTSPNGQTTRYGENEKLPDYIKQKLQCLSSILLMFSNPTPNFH

[5] = molecular target: cAMP-dependent protein kinase catalytic subunit beta (Homo sapiens, UniProt P22694)
ADP/ATP translocase 2 = molecular target: T3, ADP/ATP translocase 2 (Homo sapiens, UniProt P05141)
T3 sequence (P05141 whole entry): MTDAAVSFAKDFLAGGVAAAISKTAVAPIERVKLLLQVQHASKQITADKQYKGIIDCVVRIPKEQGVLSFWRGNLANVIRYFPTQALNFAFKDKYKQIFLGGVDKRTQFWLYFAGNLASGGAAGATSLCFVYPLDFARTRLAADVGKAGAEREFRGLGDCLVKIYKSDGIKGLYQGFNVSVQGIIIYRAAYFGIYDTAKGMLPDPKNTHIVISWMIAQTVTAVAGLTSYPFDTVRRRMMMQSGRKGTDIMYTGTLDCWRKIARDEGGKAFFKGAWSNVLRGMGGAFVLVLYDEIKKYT

[6] = molecular target: U5 small nuclear ribonucleoprotein 200 kDa helicase (Homo sapiens, UniProt O75643)
Also: in the data inactive means no Kd found up to 30 µM.

Sequence of Insulin receptor (P06213 28-758 limits assumed): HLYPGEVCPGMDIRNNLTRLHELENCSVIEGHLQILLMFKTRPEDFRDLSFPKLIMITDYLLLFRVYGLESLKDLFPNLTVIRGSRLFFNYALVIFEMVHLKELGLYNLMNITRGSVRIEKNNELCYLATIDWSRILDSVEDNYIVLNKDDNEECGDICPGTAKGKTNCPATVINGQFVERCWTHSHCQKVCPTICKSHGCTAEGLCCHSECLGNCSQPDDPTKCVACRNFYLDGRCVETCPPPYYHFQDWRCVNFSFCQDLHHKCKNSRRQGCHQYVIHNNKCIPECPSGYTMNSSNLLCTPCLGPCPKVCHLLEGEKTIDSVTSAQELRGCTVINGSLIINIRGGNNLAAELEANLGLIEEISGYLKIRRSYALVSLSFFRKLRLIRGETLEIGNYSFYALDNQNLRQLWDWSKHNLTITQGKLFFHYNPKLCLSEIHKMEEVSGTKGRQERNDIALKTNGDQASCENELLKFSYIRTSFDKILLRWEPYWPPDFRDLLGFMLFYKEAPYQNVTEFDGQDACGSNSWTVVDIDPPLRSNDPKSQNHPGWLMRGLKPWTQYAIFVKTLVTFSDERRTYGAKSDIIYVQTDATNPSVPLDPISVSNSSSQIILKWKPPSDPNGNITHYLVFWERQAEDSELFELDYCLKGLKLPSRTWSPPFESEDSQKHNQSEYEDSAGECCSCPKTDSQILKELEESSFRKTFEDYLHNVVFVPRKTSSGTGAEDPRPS
Sequence of Insulin receptor (P06213 763-1382 limits assumed): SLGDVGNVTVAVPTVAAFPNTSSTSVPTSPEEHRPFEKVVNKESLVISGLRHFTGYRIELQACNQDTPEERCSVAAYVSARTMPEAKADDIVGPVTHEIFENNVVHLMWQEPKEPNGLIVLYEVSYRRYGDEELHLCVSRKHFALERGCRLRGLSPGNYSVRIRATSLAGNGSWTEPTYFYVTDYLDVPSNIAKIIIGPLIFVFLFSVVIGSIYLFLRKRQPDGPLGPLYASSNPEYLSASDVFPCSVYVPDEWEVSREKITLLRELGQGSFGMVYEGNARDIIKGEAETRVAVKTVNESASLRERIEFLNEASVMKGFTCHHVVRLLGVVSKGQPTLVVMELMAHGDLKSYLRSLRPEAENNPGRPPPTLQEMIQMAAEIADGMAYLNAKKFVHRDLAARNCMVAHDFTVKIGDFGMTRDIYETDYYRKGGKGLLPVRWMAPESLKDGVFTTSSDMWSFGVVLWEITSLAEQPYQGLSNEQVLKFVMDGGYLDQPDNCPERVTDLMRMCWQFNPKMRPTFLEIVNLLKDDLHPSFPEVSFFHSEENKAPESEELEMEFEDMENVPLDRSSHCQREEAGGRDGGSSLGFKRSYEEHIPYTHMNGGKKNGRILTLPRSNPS
Sequence of Casein kinase I isoform delta (P48730 whole entry, canonical isoform): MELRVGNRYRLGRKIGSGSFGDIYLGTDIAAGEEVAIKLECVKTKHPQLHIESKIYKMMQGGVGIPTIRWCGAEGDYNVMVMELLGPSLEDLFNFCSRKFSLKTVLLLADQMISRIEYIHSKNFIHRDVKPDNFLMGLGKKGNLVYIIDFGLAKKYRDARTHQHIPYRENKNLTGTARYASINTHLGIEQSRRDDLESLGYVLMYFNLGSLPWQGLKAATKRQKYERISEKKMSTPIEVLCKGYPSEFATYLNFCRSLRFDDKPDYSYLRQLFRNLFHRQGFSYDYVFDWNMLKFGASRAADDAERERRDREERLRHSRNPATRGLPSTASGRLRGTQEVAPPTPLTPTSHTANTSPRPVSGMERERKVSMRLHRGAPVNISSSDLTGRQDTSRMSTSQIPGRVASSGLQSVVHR
Sequence of U5 small nuclear ribonucleoprotein 200 kDa helicase (O75643 whole entry): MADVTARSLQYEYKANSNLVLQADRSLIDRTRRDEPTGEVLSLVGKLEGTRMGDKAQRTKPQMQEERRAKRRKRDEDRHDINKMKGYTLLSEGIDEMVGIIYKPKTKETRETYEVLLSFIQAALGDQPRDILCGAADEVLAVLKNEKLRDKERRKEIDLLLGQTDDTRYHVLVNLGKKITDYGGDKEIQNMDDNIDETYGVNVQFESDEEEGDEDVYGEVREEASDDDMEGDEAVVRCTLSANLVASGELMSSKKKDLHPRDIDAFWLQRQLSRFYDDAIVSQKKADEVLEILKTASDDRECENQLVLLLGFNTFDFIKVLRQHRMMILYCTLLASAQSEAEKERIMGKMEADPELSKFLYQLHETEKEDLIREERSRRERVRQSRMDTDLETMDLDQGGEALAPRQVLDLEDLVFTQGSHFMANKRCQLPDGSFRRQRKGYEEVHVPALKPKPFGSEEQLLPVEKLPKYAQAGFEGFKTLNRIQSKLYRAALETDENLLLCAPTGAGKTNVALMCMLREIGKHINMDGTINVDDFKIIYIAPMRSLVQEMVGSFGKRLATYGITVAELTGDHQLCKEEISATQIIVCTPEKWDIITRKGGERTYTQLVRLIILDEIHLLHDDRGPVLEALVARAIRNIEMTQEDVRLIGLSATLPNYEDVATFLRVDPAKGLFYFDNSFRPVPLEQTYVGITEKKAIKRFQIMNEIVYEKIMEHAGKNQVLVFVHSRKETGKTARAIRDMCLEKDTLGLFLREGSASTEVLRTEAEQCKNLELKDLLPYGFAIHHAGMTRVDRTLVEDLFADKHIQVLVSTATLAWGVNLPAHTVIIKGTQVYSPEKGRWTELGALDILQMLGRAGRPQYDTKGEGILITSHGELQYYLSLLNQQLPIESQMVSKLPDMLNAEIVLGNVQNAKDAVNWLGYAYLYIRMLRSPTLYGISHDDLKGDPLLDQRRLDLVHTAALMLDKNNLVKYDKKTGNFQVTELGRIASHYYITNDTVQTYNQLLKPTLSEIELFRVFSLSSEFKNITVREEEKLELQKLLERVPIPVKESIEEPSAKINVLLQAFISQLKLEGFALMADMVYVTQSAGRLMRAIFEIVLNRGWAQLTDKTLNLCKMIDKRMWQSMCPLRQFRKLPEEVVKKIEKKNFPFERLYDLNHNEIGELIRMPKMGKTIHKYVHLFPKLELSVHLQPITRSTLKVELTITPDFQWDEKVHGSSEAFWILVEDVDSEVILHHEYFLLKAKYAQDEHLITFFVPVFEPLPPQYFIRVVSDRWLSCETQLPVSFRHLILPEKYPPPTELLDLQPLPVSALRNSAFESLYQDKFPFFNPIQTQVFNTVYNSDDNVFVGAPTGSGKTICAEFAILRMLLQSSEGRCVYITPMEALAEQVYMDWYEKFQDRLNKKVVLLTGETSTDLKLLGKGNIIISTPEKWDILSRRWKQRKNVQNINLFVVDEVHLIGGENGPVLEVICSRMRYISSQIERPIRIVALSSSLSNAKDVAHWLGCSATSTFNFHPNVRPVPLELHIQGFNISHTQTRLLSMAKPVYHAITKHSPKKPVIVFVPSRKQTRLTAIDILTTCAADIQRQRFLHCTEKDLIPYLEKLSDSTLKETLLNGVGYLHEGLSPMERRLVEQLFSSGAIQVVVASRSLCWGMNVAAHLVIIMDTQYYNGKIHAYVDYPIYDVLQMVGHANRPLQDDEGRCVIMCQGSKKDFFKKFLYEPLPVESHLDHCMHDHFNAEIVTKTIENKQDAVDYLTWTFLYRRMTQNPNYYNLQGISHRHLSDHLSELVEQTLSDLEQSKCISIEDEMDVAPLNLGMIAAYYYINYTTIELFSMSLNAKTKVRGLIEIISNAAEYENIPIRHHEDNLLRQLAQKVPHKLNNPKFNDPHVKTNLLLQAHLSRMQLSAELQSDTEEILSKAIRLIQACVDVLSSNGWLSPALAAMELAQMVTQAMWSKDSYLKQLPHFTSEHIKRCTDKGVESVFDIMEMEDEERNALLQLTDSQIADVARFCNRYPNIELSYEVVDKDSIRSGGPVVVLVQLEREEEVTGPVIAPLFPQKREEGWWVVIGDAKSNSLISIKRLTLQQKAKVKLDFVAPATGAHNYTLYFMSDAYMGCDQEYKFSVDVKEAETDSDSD
Sequence of Glycogen synthase kinase-3 beta (P49841 whole entry): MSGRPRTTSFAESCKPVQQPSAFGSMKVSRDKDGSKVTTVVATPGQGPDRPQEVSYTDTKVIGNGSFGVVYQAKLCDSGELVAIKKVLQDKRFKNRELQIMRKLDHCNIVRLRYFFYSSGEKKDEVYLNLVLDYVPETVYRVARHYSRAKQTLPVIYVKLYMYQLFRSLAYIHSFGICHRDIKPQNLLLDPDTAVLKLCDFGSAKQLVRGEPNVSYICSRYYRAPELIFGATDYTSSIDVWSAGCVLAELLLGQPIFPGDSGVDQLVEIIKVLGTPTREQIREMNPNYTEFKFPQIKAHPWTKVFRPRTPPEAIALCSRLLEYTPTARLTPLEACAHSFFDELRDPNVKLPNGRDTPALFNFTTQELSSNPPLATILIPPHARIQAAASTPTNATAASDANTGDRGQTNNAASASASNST
Sequence of Dual specificity mitogen-activated protein kinase kinase 1 (Q02750 whole entry): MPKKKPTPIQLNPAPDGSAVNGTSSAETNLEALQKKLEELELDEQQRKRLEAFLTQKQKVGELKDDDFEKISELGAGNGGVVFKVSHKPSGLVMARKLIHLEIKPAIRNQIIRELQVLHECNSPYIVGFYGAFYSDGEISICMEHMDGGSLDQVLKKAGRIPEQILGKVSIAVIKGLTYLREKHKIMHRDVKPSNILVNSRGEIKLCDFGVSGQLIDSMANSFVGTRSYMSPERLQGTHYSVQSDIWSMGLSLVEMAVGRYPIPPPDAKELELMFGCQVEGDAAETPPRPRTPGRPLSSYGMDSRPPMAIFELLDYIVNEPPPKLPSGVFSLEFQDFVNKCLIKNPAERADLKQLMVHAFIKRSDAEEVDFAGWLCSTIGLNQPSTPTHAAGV

| Kd [1] | Kd (Ephrin type-B receptor 2) | Kd [2] | Kd (Insulin receptor) | Kd [3] | Kd [4] | Kd [5] | Kd (ADP/ATP translocase 2) | Kd [6] | Structure (SMILES) |
| --- | --- | --- | --- | --- | --- | --- | --- | --- | --- |
| > 30 µM (inactive) | 0.448 µM (active) | > 30 µM (inactive) | > 30 µM (inactive) | > 30 µM (inactive) | > 30 µM (inactive) | > 30 µM (inactive) | > 30 µM (inactive) | > 30 µM (inactive) | COc1cc2nccc(Oc3ccc(NC(=O)Nc4cc(C)on4)c(Cl)c3)c2cc1OC [TIVOZANIB] |
| > 30 µM (inactive) | > 30 µM (inactive) | > 30 µM (inactive) | > 30 µM (inactive) | > 30 µM (inactive) | > 30 µM (inactive) | > 30 µM (inactive) | > 30 µM (inactive) | > 30 µM (inactive) | CN1N=C(N)c2cn([C@@H]3O[C@H](COP(=O)(O)O)[C@@H](O)[C@H]3O)c3ncnc1c23 [TRICIRIBINE PHOSPHATE] |
| > 30 µM (inactive) | > 30 µM (inactive) | > 30 µM (inactive) | > 30 µM (inactive) | > 30 µM (inactive) | > 30 µM (inactive) | > 30 µM (inactive) | > 30 µM (inactive) | > 30 µM (inactive) | CCCS(=O)(=O)Nc1ccc(F)c(C(=O)c2c[nH]c3ncc(-c4ccc(Cl)cc4)cc23)c1F [VEMURAFENIB] |
| > 30 µM (inactive) | > 30 µM (inactive) | > 30 µM (inactive) | > 30 µM (inactive) | > 30 µM (inactive) | > 30 µM (inactive) | > 30 µM (inactive) | > 30 µM (inactive) | > 30 µM (inactive) | CC[C@@H]1C(=O)N(C)c2cnc(Nc3ccc(C(=O)N[C@H]4CC[C@H](N5CCN(CC6CC6)CC5)CC4)cc3OC)nc2N1C(C)C [VOLASERTIB] |
| > 30 µM (inactive) | > 30 µM (inactive) | > 30 µM (inactive) | > 30 µM (inactive) | > 30 µM (inactive) | > 30 µM (inactive) | > 30 µM (inactive) | > 30 µM (inactive) | > 30 µM (inactive) | CCn1c(=O)c(-c2cc[nH]n2)cc2c(C)nc(N)nc21 [VOXTALISIB] |
| > 30 µM (inactive) | > 30 µM (inactive) | > 30 µM (inactive) | > 30 µM (inactive) | > 30 µM (inactive) | 0.908 µM (active) | > 30 µM (inactive) | > 30 µM (inactive) | > 30 µM (inactive) | O=C(Nc1ccc(-c2ccnc(Nc3ccc(N4CCOCC4)cc3)n2)cc1)C1CCCN1 (stereo not drawn) [XL-019] |

| Structure (SMILES) | Kd [1] | Kd (Ephrin type-B receptor 2) | Kd [2] | Kd (Insulin receptor) | Kd [3] | Kd [4] | Kd [5] | Kd (ADP/ATP translocase 2) | Kd [6] |
| --- | --- | --- | --- | --- | --- | --- | --- | --- | --- |
| CN1CCC(COc2cnc(-c3cccc(Cn4nc(-c5cccc(C#N)c5)ccc4=O)c3)nc2)CC1 [TEPOTINIB] | > 30 µM (inactive) | > 30 µM (inactive) | > 30 µM (inactive) | > 30 µM (inactive) | > 30 µM (inactive) | > 30 µM (inactive) | > 30 µM (inactive) | > 30 µM (inactive) | > 30 µM (inactive) |

Reference: ChEMBL document CHEMBL3991601, “The target landscape of clinical kinase drugs” (Science, 2017)
